Measured values reported in patent US10473645B2, “Methods for identifying a receptor for a ligand and uses thereof” (UNIVERSITE DE GENEVE, priority 2014, dated 2019).

Experiments:
olfr1054 = assay: OR transcript level by RT-qPCR after in vivo odorant exposure; set-up: species or system mouse; key: The transcript downregulation of 21 out of the 26 olfactory receptor candidates obtained by RNAseq was confirmed by qPCR; false RNAseq positive candidates, namely OR candidates for which in fact mRNA was not downregulated following acetophenone exposure; conditions: 5% acetophenone exposure
Method: (§1) In vivo exposure to odorant: Starting 48 h before experiments, mice were habituated to pure DMSO on a cotton ball. 200 μl were pipetted directly onto the cotton and placed in the cage, replacing any cotton that was already in the cage for nest-making purposes.
(§2) On the day of the experiment, mice receiving odorants were transferred to a different room, where they were exposed to a cotton ball on which 200 μl of odorant diluted in pure DMSO were deposited. Exposures started in the morning between 8 and 10 am (that is two hours after lights were on) and mice were killed and dissected between 1 and 3 pm. […] If a number of different odorants were tested in the same experiment, a different overpressurized room would always be used for each odorant to avoid odor cross-contamination.
(§3) After odorant exposure, mice were killed by cervical dislocation and immediately decapitated. The main olfactory epithelia (MOE), were harvested in their entirety and transferred to a tube containing 600 μl of lysis buffer and β-mercaptoethanol (RNAeasy kit, Qiagen, following the manufacturer protocol) and a 0.5 cm diameter steel ball, and then put on ice. Samples were then homogenized using a FastPrep®-24 instrument (MP Biomedicals) at 6 m/s for 30 s and left on ice. RNA extraction was performed on all samples in parallel using the Qiagen RNeasy Mini® kit following the manufacturer's instructions. Two DNase treatments were performed on all samples: first using the Qiagen RNase-Free DNase Set® and then using the Life Technologies Ambion DNase I® kit. RNA samples were then aliquoted and stored at −80° C.
(§4) RNA concentrations were determined using an Amersham Ultrospec® 3100 Pro spectrophotometer, and RNA quality was evaluated with an Agilent Technologies 2100 Bioanalyzer®. Each reverse transcription was performed with 0.5 μg RNA using the Takara Primescript® kit, in a final volume of 10 μl. Primers for reverse transcription were equal mixtures of poly-T nucleotides and random hexamers. Negative controls (omitting the reverse transcriptase enzyme) were performed for each sample. 1/14th of the cDNA preparation was used for each triplicated qPCR reaction.
(§5) qPCR Ct values were analyzed using an in-house developed Microsoft Excel® macro file. Triplicate values were compared and outliers (values with a difference higher than 0.5 Ct to their nearest neighbor) were discarded. The number of conditions with an outlying value was always less than 10% of the total number of conditions. Ct values were converted to quantities relative to the maximum for each given gene. Selected reference genes were then analyzed for variance using the geNorm algorithm. All values were normalized with the olfactory tissue-specific genes Omp and Adcy3. β-Actin was used as a non-tissue-specific reference gene to control for differences in dissection between samples.
(§6) Mice (n=6) were exposed to 5% acetophenone or to a “neutral” control condition for 5 hours. An olfactory cDNA library corresponding to each animal was deep sequenced and the ratios of odorant receptor mRNA concentrations relative to controls were plotted (FIG. 3). […] Based on transcriptional downregulation levels observed by RNAseq following acetophenone exposure, a list of 26 candidate responsive ORs was determined (FIG. 3), that reached 74% decrease (Olfr145) or even over 80% (Olfr169) relative to controls. […] The transcript downregulation of 21 out of the 26 olfactory receptor candidates obtained by RNAseq was confirmed by qPCR.

olfr1448 = assay: as above; set-up: species or system mouse; key: The transcript downregulation of 21 out of the 26 olfactory receptor candidates obtained by RNAseq was confirmed by qPCR; false RNAseq positive candidates, namely OR candidates for which in fact mRNA was not downregulated following acetophenone exposure; conditions: 5% acetophenone exposure
Method: as §1, §2, §3, §4, §5, §6

olfr1501 = assay: as above; set-up: species or system mouse; key: The transcript downregulation of 21 out of the 26 olfactory receptor candidates obtained by RNAseq was confirmed by qPCR; false RNAseq positive candidates, namely OR candidates for which in fact mRNA was not downregulated following acetophenone exposure; conditions: 5% acetophenone exposure
Method: as §1, §2, §3, §4, §5, §6

olfr47 = assay: as above; set-up: species or system mouse; key: The transcript downregulation of 21 out of the 26 olfactory receptor candidates obtained by RNAseq was confirmed by qPCR; false RNAseq positive candidates, namely OR candidates for which in fact mRNA was not downregulated following acetophenone exposure; conditions: 5% acetophenone exposure
Method: as §1, §2, §3, §4, §5, §6

olfr745 = assay: as above; set-up: species or system mouse; key: The transcript downregulation of 21 out of the 26 olfactory receptor candidates obtained by RNAseq was confirmed by qPCR; false RNAseq positive candidates, namely OR candidates for which in fact mRNA was not downregulated following acetophenone exposure; conditions: 5% acetophenone exposure
Method: as §1, §2, §3, §4, §5, §6

olfr750 = assay: as above; set-up: species or system mouse; key: The transcript downregulation of 21 out of the 26 olfactory receptor candidates obtained by RNAseq was confirmed by qPCR; false RNAseq positive candidates, namely OR candidates for which in fact mRNA was not downregulated following acetophenone exposure; conditions: 5% acetophenone exposure
Method: as §1, §2, §3, §4, §5, §6

[1] = system: Olfr171-expressing neurons; assay: pS6 immunolabeling with OR in situ hybridization after odorant exposure; set-up: species or system mouse; conditions: 5% odorant, 60 minutes, in vivo
Method: In order to independently validate the identity of an acetophenone receptor obtained with the RNAseq approach, the potential colocalization following acetophenone exposure of a neuronal activity marker (the phosphorylated ribosomal protein S6 (pS6) (Knight et al., 2012, Cell, 151, 1126-1137) and specific olfactory receptors were evaluated. To this aim, in-situ hybridizations were performed on sections of olfactory tissue with probes targeting receptor mRNAs followed by immunolabeling of pS6. The probes used were directed against the transcripts of most of the ORs determined as responsive including Olfr983 transcripts (encoding a known acetophenone receptor), Olfr171 transcripts (encoding a known ethyl isobutyrate receptor), and Olfr145 transcripts, encoding a newly identified receptor by RNAseq. Before analysis, mice were exposed to either 5% acetophenone, 5% ethyl isobutyrate, or a negative control condition for 60 minutes. […] 66% (Olfr983) and 70% (Olfr145) of the neurons were positive for pS6 after acetophenone exposure, while only 11% of the neurons expressing Olfr171 were positive for pS6 after exposure to this compound.

CC(=O)c1ccccc1 [acetophenone]
olfr1054 candidate OR (RNAseq) confirmed by qPCR (olfr1054): y
olfr1448 candidate OR (RNAseq) confirmed by qPCR (olfr1448): y
olfr1501 candidate OR (RNAseq) confirmed by qPCR (olfr1501): y
olfr47 candidate OR (RNAseq) confirmed by qPCR (olfr47): y
olfr745 candidate OR (RNAseq) confirmed by qPCR (olfr745): y
olfr750 candidate OR (RNAseq) confirmed by qPCR (olfr750): n
fraction of Olfr171-expressing neurons positive for pS6 [1]: 11%
